From paper PMC11747885, “Potent inhibitors of the human RNA ligase Rlig1 highlights its role in RNA integrity maintenance under oxidative cellular stress” (Chemical Science, 2025)
Values joined by “and” are separate entries in the source; they are usually repeats but may differ in a detail not shown here. Identical values can stand only once. Like-named read-outs stand apart in the source and are kept apart here.

Key:
Hsp90-TPR2A = target: Hsp90-TPR2A; parameters: method as in MedChemExpress; details: interaction of Hsp90-TPR2A; ref MedChemExpress; cited from earlier work
Rlig1-AMP = target: T1, Rlig1-AMP (Homo sapiens, UniProt Q8N999); assay: FRET-based high-throughput screening of inhibitors for Rlig1-AMP; format: biochemical; details: for 1-D Distance: difference of raw data w/o and w enzyme; for Raw data [w Enyzm]: with enzyme; for Raw data [w/o Enzym]: without enzyme
T1 construct: made in house; host or cells: E. coli BL21 (DE3), pET15b-Rlig1

FAAH [1] = system: FAAH; parameters: method as in MedChemExpress; details: mouse FAAH; ref MedChemExpress; cited from earlier work
[2] = in DMSO; ref MedChemExpress; cited from earlier work
FAAH [3] = system: FAAH; parameters: method as in MedChemExpress; details: rat FAAH; ref MedChemExpress; cited from earlier work
FAAH [4] = system: FAAH; parameters: method as in MedChemExpress; details: human FAAH; ref MedChemExpress; cited from earlier work
G9a = system: G9a; parameters: method as in MedChemExpress [1]; details: ref MedChemExpress [1]; cited from earlier work
NO production = system: NO production; parameters: method as in MedChemExpress; details: ref MedChemExpress; cited from earlier work
[5] = DMSO; ultrasonic/warming; ref MedChemExpress; cited from earlier work
ERβ = system: ERβ; parameters: method as in MedChemExpress; details: ref MedChemExpress; read-out: IC50, binding to ERβ; cited from earlier work
EGFR = system: EGFR; parameters: method as in MedChemExpress; details: ref MedChemExpress; cited from earlier work
factor IXaβ (FIXa) = target: factor IXaβ (FIXa); parameters: method as in MedChemExpress [1][2][3]; details: ref MedChemExpress [1][2][3]; cited from earlier work
Rift Valley virus = details: cited from earlier work
Dengue Fever virus = system: Dengue Fever virus; parameters: method as in MedChemExpress; details: ref MedChemExpress; cited from earlier work
HCV = system: HCV; parameters: method as in MedChemExpress; details: ref MedChemExpress; cited from earlier work
Ebola virus = details: cited from earlier work
HIV-1 = details: ref MedChemExpress; cited from earlier work
[6] = target: phosphodiesterase 4 (PDE4); parameters: method as in MedChemExpress; details: ref MedChemExpress; cited from earlier work
[7] = target: phosphodiesterase 5 (PDE5); parameters: method as in MedChemExpress; details: ref MedChemExpress; cited from earlier work
[8] = target: phosphodiesterase 3 (PDE3); parameters: method as in MedChemExpress; details: ref MedChemExpress; cited from earlier work
[9] = target: Acyl-coenzyme A: cholesterol acyltransferase (ACAT); parameters: method as in MedChemExpress [1]; details: rat liver microsomal ACAT; ref MedChemExpress [1]; cited from earlier work
Cdc25C = system: Cdc25C; parameters: method as in MedChemExpress [1]; details: ref MedChemExpress [1]; cited from earlier work
Cdc25A = system: Cdc25A; parameters: method as in MedChemExpress [1]; details: ref MedChemExpress [1]; cited from earlier work
Cdc25B = system: Cdc25B; parameters: method as in MedChemExpress [1]; details: ref MedChemExpress [1]; cited from earlier work
[10] = parameters: method as in MedChemExpress [1]; details: ref MedChemExpress [1]; read-out: IC50 DPPH radical scavenging; cited from earlier work
[11] = parameters: method as in MedChemExpress [1]; details: ref MedChemExpress [1]; read-out: IC50 superoxide anion scavenging; cited from earlier work
TLR4 signaling = system: TLR4 signaling; parameters: method as in MedChemExpress [1][2][3]; details: ref MedChemExpress [1][2][3]; cited from earlier work
H+/K+-ATPases = system: H+/K+-ATPases; parameters: method as in MedChemExpress [1]; details: porcine, canine, and human, in vitro; ref MedChemExpress [1]; cited from earlier work
proton transport = system: proton transport; parameters: method as in MedChemExpress; details: ref MedChemExpress; read-out: EC50, inhibition of proton transport; cited from earlier work
ErbB2 = system: ErbB2; parameters: method as in MedChemExpress; details: ref MedChemExpress, cited from earlier work
TrKA = system: TrKA; parameters: method as in MedChemExpress; details: ref MedChemExpress; read-out: IC50, TrKA phosphorylation; cited from earlier work
chymotrypsin = target: chymotrypsin; parameters: method as in MedChemExpress; details: ref MedChemExpress; cited from earlier work
[12] = target: Insulin-like Growth Factor 1 Receptor (IGF1R); parameters: method as in MedChemExpress; details: ref MedChemExpress; cited from earlier work
NTPDase 3 = target: NTPDase 3; parameters: method as in MedChemExpress; details: ref MedChemExpress; cited from earlier work
NTPDase 1 (CD39) = target: NTPDase 1 (CD39); parameters: method as in MedChemExpress; details: ref MedChemExpress; cited from earlier work
NTPDase 2 = target: NTPDase 2; parameters: method as in MedChemExpress; details: ref MedChemExpress; cited from earlier work
[13] = HTS hits, normalized value (npi)
[14] = sheet HTS hits, MedChemExpress library
[15] = HTS hits, normalised value of 1-D Distance

T1 sequence (Q8N999 whole entry): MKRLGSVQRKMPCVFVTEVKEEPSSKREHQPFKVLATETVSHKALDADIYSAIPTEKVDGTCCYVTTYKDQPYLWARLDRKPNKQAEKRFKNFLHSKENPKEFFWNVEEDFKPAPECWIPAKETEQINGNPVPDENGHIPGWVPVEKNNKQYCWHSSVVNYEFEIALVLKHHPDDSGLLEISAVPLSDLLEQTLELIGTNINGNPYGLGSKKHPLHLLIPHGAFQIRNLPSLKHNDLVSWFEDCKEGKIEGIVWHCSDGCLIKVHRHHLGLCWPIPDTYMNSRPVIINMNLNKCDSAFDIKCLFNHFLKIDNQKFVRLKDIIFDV

Molecule	1-D Distance (Rlig1-AMP; HTS hits)	Raw data [w Enyzm] (Rlig1-AMP; HTS hits)	Raw data [w/o Enzym] (Rlig1-AMP; HTS hits)	1-D Distance.npi (Rlig1-AMP; [14])	1-D Distance (Rlig1-AMP; sheet HTS hits)	Raw data [w Enyzm] (Rlig1-AMP; sheet HTS hits)	Raw data [w/o Enzym] (Rlig1-AMP; sheet HTS hits)	also measured
Cn1nc(-c2ccccc2)nc2c(=O)n(C)c(=O)nc1-2 [3-Phenyltoxoflavin]	2083	15668	17751	–	–	–	–	Kd (Hsp90-TPR2A): 585 nM; 1-D Distance.npi (Rlig1-AMP; [13]): 71.558
COc1ccc(-c2coc3cc(O)cc(O)c3c2=O)cc1 [Biochanin A]	–	–	–	79.7493	1536	8945	10481	IC50 (FAAH [1]): 1800 nM; solubility, DMSO [2]: DMSO : ≥ 50 mg/mL (175.90 mM); IC50 (FAAH [3]): 1400 nM; IC50 (FAAH [4]): 2400 nM
COc1cc2c(NCC3CCN(C)CC3)cc(-c3ccc(C)o3)nc2cc1OCCCN1CCCC1.Cl.Cl.Cl [CM-579 trihydrochloride]	–	–	–	80.8725	1286	6218	7504	IC50 (G9a): […]
CC(/C=C/C=C(\C)C(=O)O[C@@H]1O[C@H](CO)[C@@H](O)[C@H](O)[C@H]1O)=C\C=C\C=C(C)\C=C\C=C(/C)C(=O)O[C@@H]1O[C@H](CO[C@@H]2O[C@H](CO)[C@@H](O)[C@H](O)[C@H]2O)[C@@H](O)[C@H](O)[C@H]1O [Crocin II]	1772	3357	5129	–	–	–	–	IC50 (NO production): 31100 nM; 1-D Distance.npi (Rlig1-AMP; [15]): 72.9439; solubility, DMSO [5]: 25 mg/mL and 30.68 mM
OC[C@H]1O[C@@H](Oc2cc3c(O)cc(O)cc3[o+]c2-c2cc(O)c(O)c(O)c2)[C@H](O)[C@@H](O)[C@@H]1O.[Cl-] [Delphinidin 3-glucoside (chloride)]	1749	3316	5065	–	–	–	–	IC50 (ERβ): 9700 nM; IC50 (EGFR): 2370 nM; 1-D Distance.npi (Rlig1-AMP; [15]): 73.356
CN1CCc2nc(C(=O)N[C@@H]3C[C@@H](C(=O)N(C)C)CC[C@@H]3NC(=O)C(=O)Nc3ccc(Cl)cn3)sc2C1.Cc1ccc(S(=O)(=O)O)cc1.O [Edoxaban (tosylate monohydrate)]	–	–	–	77.5766	1653	9167	–	Ki (factor IXaβ (FIXa)): 41700 nM
Cc1cc(NCCCN(C)C)c2ccc3c(ccc4c(NCCCN(C)C)cc(C)nc43)c2n1.Cl.Cl.Cl.Cl [FGI-106 (tetrahydrochloride)]	429	7836	8265	–	–	–	–	EC50 (Rift Valley virus): 800 nM; EC50 (Dengue Fever virus): 400 to 900 nM; EC50 (HCV): 200 nM; 1-D Distance.npi (Rlig1-AMP; [13]): 96.4905; EC50 (Ebola virus): 100 nM; EC50 (HIV-1): 150 nM
Cl.O=C1NCC2(CCN(CCc3ccccc3)CC2)O1 [Fenspiride (hydrochloride)]	1963	8551	10514	–	–	–	–	-log IC50, PDE4 [6]: 4.16; 1-D Distance.npi (Rlig1-AMP; [15]): 70.4519; -log IC50, PDE5 [7]: ~3.8; -log IC50, PDE3 [8]: 3.44
CC(C)=CCc1cc([C@@H]2CC(=O)c3ccc(O)c(CC=C(C)C)c3O2)ccc1O [Glabrol]	–	–	–	–	1660	8836	10496	IC50 [9]: 24600 nM; solubility, DMSO [2]: DMSO : 100 mg/mL (254.78 mM; Need ultrasonic)
Cc1ccc(Cn2cc(CNC3=C(Cl)C(=O)c4cccnc4C3=O)nn2)cc1 [M2N12]	–	–	–	96.6155	465	6859	7324	IC50 (Cdc25C): 90 nM; solubility, DMSO [2]: DMSO : 11.11 mg/mL (28.21 mM; ultrasonic and warming and heat to 67°C); IC50 (Cdc25A): 530 nM; IC50 (Cdc25B): 1390 nM
O=C1O[C@@H]2[C@@H](O)[C@H](O)[C@@H](CO)O[C@H]2c2c1cc(O)c(O)c2O [Norbergenin]	–	–	–	–	1829	9099	10928	IC50 [10]: 13000 nM; IC50 [11]: 32000 nM; solubility, DMSO [2]: DMSO : 125 mg/mL (397.79 mM; Need ultrasonic)
C/C(=N\N=C(N)N)c1cc(NC(=O)CCCCCCCCC(=O)Nc2cc(/C(C)=N/N=C(N)N)cc(/C(C)=N/N=C(N)N)c2)cc(/C(C)=N/N=C(N)N)c1.Cl.Cl.Cl.Cl [Semapimod (tetrahydrochloride)]	–	–	–	101.371	217	4067	3850	IC50 (TLR4 signaling): ~300 nM
Cc1nc2cc(C(=O)N(C)C)cc(O[C@H]3CCOc4cc(F)cc(F)c43)c2[nH]1 [Tegoprazan]	–	–	–	–	1843	8992	10835	solubility, DMSO [2]: DMSO : 100 mg/mL (258.14 mM; Need ultrasonic); IC50 (H+/K+-ATPases): 290 to 520 nM
CCCCCCCCCCCCCCCC[N+](C)(C)CCN(Cc1ccc(OC)cc1)c1ncccn1.[Br-] [Thonzonium (bromide)]	365	4968	4603	–	–	–	–	1-D Distance.npi (Rlig1-AMP; [15]): 101.053; EC50 (proton transport): 69000 nM
CC(C)(C)c1cc(/C=C(\C#N)C(N)=S)cc(C(C)(C)C)c1O [Tyrphostin AG 879]	1883	2204	4087	–	–	–	–	IC50 (ErbB2; ErbB2): 1000 nM; selectivity to ErbB2 than EGFR (ErbB2; ErbB2 vs EGFR): ≥ 500 fold; IC50 (TrKA): 10000 nM
Aprotinin	1367	37995	39362	–	–	–	–	Ki (chymotrypsin): 9 nM; 1-D Distance.npi (Rlig1-AMP; [15]): 82.3934
Indirubin Derivative E804	–	–	–	87.7994	1070	1875	2945	IC50 [12]: 650 nM
Sodium metatungstate	673	16164	15491	–	–	–	–	Ki (NTPDase 3): 3260 nM; 1-D Distance.npi (Rlig1-AMP; [13]): 95.6511; Ki (NTPDase 1 (CD39)): 2580 nM; Ki (NTPDase 2): 28800 nM
